From PMC8595862 (Environmental toxicology and pharmacology, 2021)
Structures can show the parent of a compound that is named as a salt.

Experiments:
[1] = rats, 0.6 mg/kg intravenous injection; ref Grimm et al., 2015a; cited from earlier work
[2] = test system: human hepatic microsomal sulfatase; experiment: Human hepatic microsomal sulfatase assay; type: in vitro ADME; conditions: relative to DHEA sulfate
[3] = human cohort exposed to PCBs; calculated; ref Quinete et al., 2017; cited from earlier work

Row | Compound | Catalytic efficiency compared with DHEA sulfate [2] | Plasma half-life [3] | further results
1 | O=S(=O)(O)Oc1ccc(-c2cccc(Cl)c2)cc1Cl [4-PCB 11 Sulfate, 3,3’-dichloro-4-biphenylsulfate] |  |  | Tissue uptake, metabolism and urinary excretion [1]: taken up by tissues and further metabolized, with only a small percentage excreted in the urine
2 | O=S(=O)(O)Oc1cc(Cl)c(-c2cc(Cl)ccc2Cl)cc1Cl [4-PCB 52 Sulfate, 2,2’,5,5’-tetrachloro-4-biphenylsulfate] | over 20 times |  | 
3 | Oc1ccc(-c2ccc(Cl)cc2Cl)cc1Cl [4’-OH-PCB 25, 2,3’,4-trichloro-4’-hydroxybiphenyl] |  | 6.46 years | 
4 | O=S(=O)(O)Oc1ccc(-c2ccc(Cl)c(Cl)c2)cc1 [4’-PCB 12 Sulfate, 3,4-dichloro-4’-biphenylsulfate] | the same as DHEA sulfate |  | 
5 | Clc1ccc(-c2ccc(Cl)cc2Cl)cc1 [PCB 28, 2,4,4’-trichlorobiphenyl] |  | 4.32 years | 
